According to the NIST ThermoML archive (doi:10.1016/j.jct.2004.12.004):

Test: mn = molality of the nth substance listed, in mol/kg
Settings: 350 kPa, Liquid, Extra sensitive DSC

OC[C@H]1O[C@@](CO)(O[C@H]2O[C@H](CO)[C@@H](O)[C@H](O)[C@H]2O)[C@@H](O)[C@@H]1O [D-sucrose] + O
Settings | apparent molar heat capacity [J/K/mol]
278.15 K, m1 = 0.01461 | 532.5
278.15 K, m1 = 0.03048 | 533.5
278.15 K, m1 = 0.06172 | 533.8
278.15 K, m1 = 0.1302 | 535.7
278.15 K, m1 = 0.2486 | 538.6
278.15 K, m1 = 0.4969 | 544.2
278.15 K, m1 = 0.746 | 548.9
278.15 K, m1 = 0.9972 | 554.2
278.15 K, m1 = 1.489 | 560.3
278.15 K, m1 = 1.99 | 566.8
278.15 K, m1 = 2.99 | 577.9
278.15 K, m1 = 3.995 | 587.9
283.15 K, m1 = 0.01461 | 567.4
283.15 K, m1 = 0.03048 | 567.3
283.15 K, m1 = 0.06172 | 568.9
283.15 K, m1 = 0.1302 | 569.8
283.15 K, m1 = 0.2486 | 572
283.15 K, m1 = 0.4969 | 575.9
283.15 K, m1 = 0.746 | 579.3
283.15 K, m1 = 0.9972 | 583.7
283.15 K, m1 = 1.489 | 587.9
283.15 K, m1 = 1.99 | 593.1
283.15 K, m1 = 2.99 | 601.8
283.15 K, m1 = 3.995 | 610
288.15 K, m1 = 0.01461 | 596.7
288.15 K, m1 = 0.03048 | 596.6
288.15 K, m1 = 0.06172 | 597.7
288.15 K, m1 = 0.1302 | 598.1
288.15 K, m1 = 0.2486 | 599.7
288.15 K, m1 = 0.4969 | 602.4
288.15 K, m1 = 0.746 | 604.7
288.15 K, m1 = 0.9972 | 608.3
288.15 K, m1 = 1.489 | 611
288.15 K, m1 = 1.99 | 614.9
288.15 K, m1 = 2.99 | 621.5
288.15 K, m1 = 3.995 | 628.2
293.15 K, m1 = 0.01461 | 622
293.15 K, m1 = 0.03048 | 621.8
293.15 K, m1 = 0.06172 | 622.6
293.15 K, m1 = 0.1302 | 622.7
293.15 K, m1 = 0.2486 | 623.7
293.15 K, m1 = 0.4969 | 625.6
293.15 K, m1 = 0.746 | 627.1
293.15 K, m1 = 0.9972 | 629.8
293.15 K, m1 = 1.489 | 631.4
293.15 K, m1 = 1.99 | 634.1
293.15 K, m1 = 2.99 | 639
293.15 K, m1 = 3.995 | 644.5
298.15 K, m1 = 0.01461 | 642.1
298.15 K, m1 = 0.03048 | 642.9
298.15 K, m1 = 0.06172 | 644
298.15 K, m1 = 0.1302 | 643.9
298.15 K, m1 = 0.2486 | 644.7
298.15 K, m1 = 0.4969 | 646
298.15 K, m1 = 0.746 | 646.9
298.15 K, m1 = 0.9972 | 649.1
298.15 K, m1 = 1.489 | 649.6
298.15 K, m1 = 1.99 | 651.6
298.15 K, m1 = 2.99 | 655.2
298.15 K, m1 = 3.995 | 659.4
303.15 K, m1 = 0.01461 | 660.7
303.15 K, m1 = 0.03048 | 662.1
303.15 K, m1 = 0.06172 | 663
303.15 K, m1 = 0.1302 | 663.2
303.15 K, m1 = 0.2486 | 663.8
303.15 K, m1 = 0.4969 | 664.5
303.15 K, m1 = 0.746 | 665.1
303.15 K, m1 = 0.9972 | 666.8
303.15 K, m1 = 1.489 | 666.5
303.15 K, m1 = 1.99 | 667.8
303.15 K, m1 = 2.99 | 670.4
303.15 K, m1 = 3.995 | 673.5
308.15 K, m1 = 0.01461 | 679
308.15 K, m1 = 0.03048 | 679.1
308.15 K, m1 = 0.06172 | 680.3
308.15 K, m1 = 0.1302 | 680.3
308.15 K, m1 = 0.2486 | 680.6
308.15 K, m1 = 0.4969 | 680.9
308.15 K, m1 = 0.746 | 681.1
308.15 K, m1 = 0.9972 | 682.4
308.15 K, m1 = 1.489 | 681.8
308.15 K, m1 = 1.99 | 682.4
308.15 K, m1 = 2.99 | 683.9
308.15 K, m1 = 3.995 | 686.3
313.15 K, m1 = 0.01461 | 695.3
313.15 K, m1 = 0.03048 | 695.1
313.15 K, m1 = 0.06172 | 696.3
313.15 K, m1 = 0.1302 | 696.2
313.15 K, m1 = 0.2486 | 696.3
313.15 K, m1 = 0.4969 | 696.3
313.15 K, m1 = 0.746 | 696.2
313.15 K, m1 = 0.9972 | 697.3
313.15 K, m1 = 1.489 | 696.3
313.15 K, m1 = 1.99 | 696.4
313.15 K, m1 = 2.99 | 697.1
313.15 K, m1 = 3.995 | 698.8
318.15 K, m1 = 0.01461 | 709.1
318.15 K, m1 = 0.03048 | 709.4
318.15 K, m1 = 0.06172 | 710.4
318.15 K, m1 = 0.1302 | 710.3
318.15 K, m1 = 0.2486 | 710.3
318.15 K, m1 = 0.4969 | 710.1
318.15 K, m1 = 0.746 | 709.8
318.15 K, m1 = 0.9972 | 710.5
318.15 K, m1 = 1.489 | 709.1
318.15 K, m1 = 1.99 | 709.1
318.15 K, m1 = 2.99 | 709.1
318.15 K, m1 = 3.995 | 710.2
323.15 K, m1 = 0.01461 | 722.3
323.15 K, m1 = 0.03048 | 722.4
323.15 K, m1 = 0.06172 | 723.4
323.15 K, m1 = 0.1302 | 723.1
323.15 K, m1 = 0.2486 | 723
323.15 K, m1 = 0.4969 | 722.6
323.15 K, m1 = 0.746 | 722
323.15 K, m1 = 0.9972 | 722.7
323.15 K, m1 = 1.489 | 721
323.15 K, m1 = 1.99 | 720.7
323.15 K, m1 = 2.99 | 720.3
323.15 K, m1 = 3.995 | 720.8
328.15 K, m1 = 0.01461 | 735.7
328.15 K, m1 = 0.03048 | 735.3
328.15 K, m1 = 0.06172 | 735.9
328.15 K, m1 = 0.1302 | 735.3
328.15 K, m1 = 0.2486 | 735.1
328.15 K, m1 = 0.4969 | 734.6
328.15 K, m1 = 0.746 | 733.9
328.15 K, m1 = 0.9972 | 734.3
328.15 K, m1 = 1.489 | 732.5
328.15 K, m1 = 1.99 | 731.9
328.15 K, m1 = 2.99 | 730.9
328.15 K, m1 = 3.995 | 731.1
333.15 K, m1 = 0.01461 | 746.9
333.15 K, m1 = 0.03048 | 746.6
333.15 K, m1 = 0.06172 | 747
333.15 K, m1 = 0.1302 | 746.5
333.15 K, m1 = 0.2486 | 746.2
333.15 K, m1 = 0.4969 | 745.4
333.15 K, m1 = 0.746 | 744.6
333.15 K, m1 = 0.9972 | 745
333.15 K, m1 = 1.489 | 742.9
333.15 K, m1 = 1.99 | 742.1
333.15 K, m1 = 2.99 | 740.7
333.15 K, m1 = 3.995 | 740.5
338.15 K, m1 = 0.01461 | 756.6
338.15 K, m1 = 0.03048 | 757.3
338.15 K, m1 = 0.06172 | 757.4
338.15 K, m1 = 0.1302 | 756.8
338.15 K, m1 = 0.2486 | 756.4
338.15 K, m1 = 0.4969 | 755.6
338.15 K, m1 = 0.746 | 754.7
338.15 K, m1 = 0.9972 | 754.9
338.15 K, m1 = 1.489 | 752.7
338.15 K, m1 = 1.99 | 751.7
338.15 K, m1 = 2.99 | 750
338.15 K, m1 = 3.995 | 749.3
343.15 K, m1 = 0.01461 | 765.9
343.15 K, m1 = 0.03048 | 766.2
343.15 K, m1 = 0.06172 | 766.8
343.15 K, m1 = 0.1302 | 766.3
343.15 K, m1 = 0.2486 | 766
343.15 K, m1 = 0.4969 | 765.2
343.15 K, m1 = 0.746 | 764.2
343.15 K, m1 = 0.9972 | 764.2
343.15 K, m1 = 1.489 | 762
343.15 K, m1 = 1.99 | 760.8
343.15 K, m1 = 2.99 | 759
343.15 K, m1 = 3.995 | 758
348.15 K, m1 = 0.01461 | 774.3
348.15 K, m1 = 0.03048 | 775.2
348.15 K, m1 = 0.06172 | 775.7
348.15 K, m1 = 0.1302 | 775.1
348.15 K, m1 = 0.2486 | 774.7
348.15 K, m1 = 0.4969 | 774
348.15 K, m1 = 0.746 | 772.8
348.15 K, m1 = 0.9972 | 772.7
348.15 K, m1 = 1.489 | 770.4
348.15 K, m1 = 1.99 | 769.1
348.15 K, m1 = 2.99 | 767
348.15 K, m1 = 3.995 | 765.8
353.15 K, m1 = 0.01461 | 781.7
353.15 K, m1 = 0.03048 | 783.6
353.15 K, m1 = 0.06172 | 784
353.15 K, m1 = 0.1302 | 783.3
353.15 K, m1 = 0.2486 | 783
353.15 K, m1 = 0.4969 | 782.2
353.15 K, m1 = 0.746 | 780.9
353.15 K, m1 = 0.9972 | 780.7
353.15 K, m1 = 1.489 | 778.3
353.15 K, m1 = 1.99 | 777
353.15 K, m1 = 2.99 | 774.6
353.15 K, m1 = 3.995 | 773.2
358.15 K, m1 = 0.01461 | 791
358.15 K, m1 = 0.03048 | 791.1
358.15 K, m1 = 0.06172 | 791.9
358.15 K, m1 = 0.1302 | 791.1
358.15 K, m1 = 0.2486 | 790.6
358.15 K, m1 = 0.4969 | 789.8
358.15 K, m1 = 0.746 | 788.4
358.15 K, m1 = 0.9972 | 788.2
358.15 K, m1 = 1.489 | 785.7
358.15 K, m1 = 1.99 | 784.3
358.15 K, m1 = 2.99 | 781.7
358.15 K, m1 = 3.995 | 780
363.15 K, m1 = 0.01461 | 797.3
363.15 K, m1 = 0.03048 | 797.3
363.15 K, m1 = 0.06172 | 798
363.15 K, m1 = 0.1302 | 797.4
363.15 K, m1 = 0.2486 | 797.1
363.15 K, m1 = 0.4969 | 796.6
363.15 K, m1 = 0.746 | 795.1
363.15 K, m1 = 0.9972 | 794.7
363.15 K, m1 = 1.489 | 792.3
363.15 K, m1 = 1.99 | 790.9
363.15 K, m1 = 2.99 | 788.1
363.15 K, m1 = 3.995 | 786.3
